Measurements as given in patent US8299040B2, “Methods for treating cancer targeting transglutaminase” (Board of Regents, The University of Texas System, priority 2006, dated 2012).

Columns and labels:
[1] = tested on: MDA-Panc28, Capan-2, Bx-PC3, Panc1 and MIAPaCa cells; assay: LC3-II accumulation (autophagy) in pancreatic cancer cell lines, western blot; type: cell-based, human; details: 4 μM for 48 h
Description: (A) A panel of pancreatic cancer cell lines including MDA-Panc28, Capan-2, Bx-PC3, Panc1 and MIAPaCa cells were treated with Rottlerin (4 μM) for 48 h for the detection of LC3-II and TG2 expression by western blot. (B) MCF-7 cell line was also tested for LC3-II and TG2 expression by western blot. (C) Expression of TG2 in MDA-Panc28 cells was determined upon exposure to different treatments (D) Detection of autophagolysosomes; MDA-Panc28 cells were treated with either control siRNA, Rottlerin or TG2 siRNA for 48 h. Photomicrographs show morphological changes of the cells by phase contrast microscopy (left panels); acridine orange staining of the acidic vesicular organelles by fluorescent microscopy (center panels) and the localization LC3-II at autophagosomes in cells after transfection with GFP-LC3 plasmid (right panels). […]
(§1) After treatment, the cells were collected and centrifuged, and whole-cell lysates were obtained using a lysis buffer. Total protein concentration was determined using a DC protein assay kit (Bio-Rad, Hercules, Calif., USA). […] Mouse anti-β-actin and donkey anti-mouse secondary antibody were purchased from Sigma Chemical (St. Louis, Mo., USA) so that β-actin expression could be monitored to ensure equal loading of proteins. […] The blots were visualized with a Fluor Chem 8900 imager and quantified by a densitometer using the Alpha Imager application program (Alpha Innotech). […]

Beclin 1 = Beclin 1 expression in MDA-Panc28 cells; type: cell-based, human; details: MDA-Panc28, data not shown
MDA-Panc28 cells [2] = assay: Growth inhibition in MDA-Panc28 cells; type: cell-based; details: Homo sapiens, MDA-Panc-28; 4 μM for 48 h; read-out: inhibition in cell growth
Description: (§2) Pancreatic cell lines MDA-Panc28, Capan-2, Bx-PC3, Panc1 and MIAPaCa were provided by Dr. Shrikant Reddy (M. D. Anderson Cancer Center). MDA-Panc28 and Bx-PC3 cell lines were maintained in RPMI-1640 medium supplemented with 10% fetal calf serum. Panc1 and MIAPaCa cell lines and Capan-2 cells were maintained in DMEM and McCoy's 5A, respectively. All media were supplemented with 10% fetal calf serum. For the cell proliferation experiments, cells were seeded at a density of 1-2×10^5 cells in T-25 tissue culture flasks. Twenty-four hours after the seeding, cells were treated with various concentrations of rottlerin for the indicated periods of time. Adherent cells were collected by trypsinization, and cell numbers were determined using a Neubauer cell counting chamber. All experiments were replicated at least two times.

mTOR = mTOR pathway phosphorylation in MDA-Panc28 cells (western blot); type: cell-based, human
Description: (A) Phosphorylated mTOR was detected after 48 h of treatment with various doses of rottlerin, cells were subjected to western blot analysis. Phosphorylation of mTOR was inhibited in a dose-dependent manner. (B) MDA-Panc28 cells were treated with a specific mTOR inhibitor, rapamycin (at either 20 nM or 100 nM), TG2 siRNA or left untreated.
as §1, with “USA). Rottlerin and mTOR inhibitor (rapamycin) were purchased from Calbiochem (La Jolla, Calif., USA). Aliquots containing 30 μg of total protein from each sample were subjected to sodium dodecyl sulfate-polyacrylamide gel electrophoresis (SDS-PAGE) with a 4-20% gradient and electrotransferred to nitrocellulose membranes.” for “USA).”

TG2 = TG2 transcript level in MDA-Panc28 cells (RT-PCR); type: cell-based, human
Description: Cells were collected for isolation of total RNA. Total cellular RNA was isolated with Trizol reagent (Invitrogen/Life Technologies, Carlsbad, Calif., USA), and cDNA was obtained from 5 μg of total RNA using a Superscript II RT kit (Invitrogen/Life Technologies). Briefly, 5 μl of the total 20 μl of reverse-transcribed product was used for PCR in 1×PCR buffer containing 1.5 mM MgCl2, 250 μM dNTPs, 0.5 units of Taq polymerase (Invitrogen/Life Technologies), and 100 ng of TG2 primer (primer 1,5′-[…]-3′; primer II, 5′-[…] GAGCAGG-3′) or β-actin-specific primer (Sigma-Genosys, Houston, Tex., USA). Thirty cycles were used for PCR analysis. The reaction products were analyzed on a 2% agarose gel containing ethidium bromide, and cDNA synthesis was verified by detection of the β-actin transcript, which was used as an internal control.

[3] = tested on: Bx-PC3, MIAPaCa, MDA-Panc28, Panc1 and Capan-2 cells; assay: Growth inhibition in pancreatic cancer cell lines; type: cell-based, human
Description: (A) Different pancreatic cancer cell lines were treated with rottlerin (4 μM) for 48 h, and viable cells were detected by proliferation assay using Alamar Blue staining. Bars represent growth inhibition after normalizing untreated cells to 100%. (B) Growth of the indicated cell lines after treatment with rottlerin (4 μM) for 48 and 96 h.
as §2

MDA-Panc28 cells [4] = assay: Acidic vesicular organelles / autophagy by acridine orange FACS; type: cell-based, human; details: 48 h, flow cytometry; control cells 8%
Description: To detect and quantify acidic vesicular organelles, cells were stained with acridine orange as described previously. The number of acridine orange-positive cells was determined by fluorescence-activated cell sorting (FACS) analysis. Cell morphology was examined using phase-contrast and fluorescence microscopy (Nikon, Melville, N.Y., USA) with the cells remaining in their culture flasks.
Exponentially growing untreated MDA-Panc28 cells were plated 24 h before transfection. Plated cells were transfected with double-stranded siRNA targeting TG2 mRNA and control (non-silencing) siRNA (all from Qiagen, Venlo, Netherlands) and/or the green fluorescent protein (GFP) and microtubule-associated protein 1 light chain 3 (LC3) fusion vector (GFP-LC3) using the Qiagen transfection reagent according to the manufacturer's protocol. Two siRNA sequences targeting TG2 were designed using siRNA-designing software (Qiagen). PKCδ siRNA was obtained from Santa Cruz Biotechnology (Santa Cruz, Calif., USA). Untransfected cells and non-silencing control siRNA-transfected cells were used as negative controls. After treatment, the cells were harvested for western blot analysis or FACS analysis to determine whether autophagy had occurred.

CC(=O)c1c(O)c(C)c(O)c(Cc2c(O)c3c(c(C(=O)/C=C/c4ccccc4)c2O)OC(C)(C)C=C3)c1O [rottlerin]
endogenous LC3-II accumulation [1]: significant increase in endogenous LC3-II accumulation
Beclin 1 expression (Beclin 1): Expression levels did not change
inhibition at 4 µM (MDA-Panc28 cells [2]): 49%
phosphorylated mTOR (p-mTOR) (mTOR; MDA-Panc28, 48 h): downregulated phosphorylated mTOR (p-mTOR)
p-p70S6K (mTOR; MDA-Panc28, data not shown): downregulated
effect on TG2 expression at the level of transcription (TG2): inhibitory effect
growth inhibition ([3]; 4 μM for 48 h, five cell lines): induced growth inhibition in all five cell lines tested
time course of growth inhibition ([3]; 4 μM, 48 and 96 h, MDA-Panc28, Bx-PC3, MIAPaCa): time-dependent inhibition in cell growth of all three
percentage of red fluorescein-positive cells (acidic vesicular organelles) (MDA-Panc28 cells [4]): 64%
